This is an account of results in US7153837B2, “Agent for protection of retinal neurons” (Ortho-McNeil Pharmaceutical Inc., priority 2001, dated 2006).

In assay [1] the test system is cultured retinal neurons of rat fetus. The experiment in a line: glutamate-induced death of cultured retinal neurons of rat fetus (trypan blue exclusion). It counts as cell-based. The settings on record: for Survival rate of cultured retinal neurons (%): 10 min, then 1 h drug-free, untreated 67, glutamate alone 46. As to the method: (1) Topiramate's Action on the Glutamate-Induced Death of Cultured Retinal Neurons of Rat Fetus: From rat fetuses (aged 17 to 19 days), retinal cells were taken out and isolated, and were cultured on a polyethylene-imine-coated plastic-covered slip in a 10% bovine fetal serum-containing Eagle's basal medium for seven days. From the eighth day, they were cultured in a 10% equine serum-containing Eagle's basal medium. On the sixth day of culture, cytosine arabinoside (10 μM) was added to inhibit the proliferation of non-neuronal cells. Next, the cells were incubated (37° C., 5% CO2.95% air) for 10 minutes in a medium which had been prepared by adding glutamate (1 mM) and topiramate in various concentrations (10 nM˜100 μM) to serum-free Eagle's basal medium. Then, cells were returned to serum-free Eagle's basal medium which contained neither glutamate nor topiramate, and were incubated (37° C., 5% CO2.95% air) for one hour, and, thereafter, toxicity was determined by trypan blue exclusion method. In detail, cells were immobilized with 10% neutral formalin solution, and were washed with physiological saline. Then, cells were dyed by adding trypan blue solution, and, thus, the number of cells was counted by phase-contrast microscope. Cells which had been dyed with trypan blue were regarded as dead, and non-dyed cells as surviving, and, thus, the survival rate of cultured cells was found from the proportion of the number of surviving cells to the number of total cells counted (at least 200). The group to which 1 mM of glutamate had been added and the group to which both 1 mM of glutamate and topiramate in various concentrations had been added are respectively called “Single 1 mM glutamate added group” and “1 mM glutamate+topiramate (various concentrations) added group”. Results concerning these groups were compared with the corresponding measured values of “Untreated group”, i.e., a group which had received no treatments. The values in the table are average values.

Assay [2] concerns ischemia-induced retinal damage. The experiment in a line: ischemia-induced retinal damage in rat (ischemia-reperfusion, retinal histology). It counts as in vivo. From the text: (2) Topiramate's Action on Ischemia-Induced Retinal Damage in Rat:
Anesthesia was indued in rat with 3% halothane, and, then, anesthesia was maintained with 1% halothane (halothane was vaporized with 0.5 l oxygen/min. and 1.5 l dinitrogen monoxider/min.). Next, mydriasis was caused in right eye with atropine, and, then, 30 G injection needle which was connected with a vessel of physiological saline for instillation via a tube hung from the ceiling was stuck into anterior chamber, and, thus, a 130 mmHg hydraulic pressure was given, and ischemia was thereby induced After 45 minutes, the injection needle was removed, and retinal blood flow was allowed to make reperfusion. Administration was conducted by intraperitoneal injection into rats with physiological saline (solvent) and topiramate (200 mg/kg body weight) dissolved (partially suspended) in solvent, respectively. The administration was carried out twice respectively, i.e., two hours before and immediately after inschemia. Seven days after the administration, eyeball was taken out, immobilized overnight in 2% paraformaldehyde-2.5% glutaraldehyde, subjected to paraffin embedding, and was sectioned, and, thus, retinal slices (with a thickness of 3 μm) stained with hematoxylin-eosin (HE) were prepared. From eight slices which had been cut with an interval of 60 μm per one eyeball so that optic nerve head might be covered, three slices were optionally selected. With regard to thus selected three slices, there was taken a photograph of retina in the range of 1 to 1.5 mm on the left or right side from optic nerve head, and, thus, the number of cells in ganglion cell layer (GCL) in retina and the thickness of inner plaxiform layer (IPL) were measured. The group to which solvent had been administered and ischemia had been induced and the group to which topiramate dissolved in solvent had been administered and ischemia had been induced are respectively called “Solvent-administered group” and “Topiramate-administered group”. […]

Turning to `CC1(C)O[C@@H]2[C@@H](CO[C@@]3(COS(N)(=O)=O)OC(C)(C)O[C@@H]23)O1` [topiramate, 2,3:4,5-bis-O-(1-methylethylidene)-β-D-fructopyranose sulfamate], the “Survival rate of cultured retinal neurons (%)” value in assay [1] (1 mM glutamate + 10 nM topiramate) amounted to 50%; in assay [1] (1 mM glutamate + 100 nM topiramate) it was 58%; in assay [1] (1 mM glutamate + 1 μM topiramate), 60%; in assay [1] (1 mM glutamate + 10 μM topiramate), 64%; in assay [1] (1 mM glutamate + 100 μM topiramate), 65%. Also, the “effect on death (apoptosis) of cultured retinal neurons” value in assay [1] (1 mM glutamate, topiramate 10 nM-100 μM, summary of Table 1) is reported as “remarkably inhibit the death (apoptosis) of cultured retinal neurons in a concentration-dependent manner”. Also, the “Thickness of IPL (μm)” value in assay [2] (200 mg/kg intraperitoneal twice (2 h before and immediately after 45 min ischemia), 7 days after, normal 49, solvent 21) was found to be 30 μm. Also, in assay [2] (200 mg/kg intraperitoneal twice (2 h before and immediately after 45 min ischemia), 7 days after, normal 68, solvent 36), the “Number of cells in GCL (number/mm)” value amounted to 44 number/mm. Further, in assay [2] (200 mg/kg intraperitoneal, summary of Table 2), the “effect on decrease of number of cells in ganglion cell layer and thinning of inner plexiform layer” value is “excellent in effectively preventing both the decrease of number of cells in ganglion cell layer and the thinning of inner plexiform layer”.
